Laboratory results as given in paper PMC4204886 (Biochemistry, 2014).

Columns and labels:
[1] = system: Pseudomonas class C β-lactamase; conditions: cited from earlier work
class C P99 β-lactamase [2] = target: T1, class C P99 β-lactamase (Enterobacter cloacae, UniProt P05364); test: P99 β-lactamase inhibition, steady-state competition with cephalothin; type: biochemical
class A BCI β-lactamase = conditions: cited from earlier work
[3] = target: class A TEM-2 β-lactamase (Escherichia coli, UniProt P62593, Q37K); type: biochemical, E. coli W3310
class C P99 β-lactamase [4] = target: T1, class C P99 β-lactamase; conditions: read-out: Km of the substrate; P99 enzyme; 20 mM MOPS pH 7.50, 25 °C; cited from earlier work
TEM-1 β-lactamase = TEM-1 β-lactamase (Escherichia coli, UniProt P62593, Q37K); test: TEM-1 β-lactamase inhibition; type: biochemical; conditions: even at 1 mM concentrations
[5] = target: class A Staphylococcus aureus PC1 β-lactamase (Staphylococcus aureus, UniProt P00807); test: PC1 β-lactamase inhibition; type: biochemical
E. coli PBP3 = E. coli PBP3 (Escherichia coli, UniProt P0AD68); test: Membrane-bound PBP inhibition, Bocillin Fl competition gel; type: binding; conditions: gel experiments, E. coli membranes, 1 h preincubation, Bocillin Fl 20 μM
E. coli PBP5 = E. coli PBP5 (Escherichia coli, UniProt P0AEB2); test: as above; type: binding; conditions: gel experiments, E. coli membranes, 1 h preincubation, Bocillin Fl 20 μM
AmpC β-lactamase = AmpC β-lactamase (Escherichia coli, UniProt P00811); test: AmpC β-lactamase inhibition, steady-state competition with cephalothin; type: biochemical
E. coli PBP2 = E. coli PBP2 (Escherichia coli, UniProt P0AD65); test: Membrane-bound PBP inhibition, Bocillin Fl competition gel; type: binding; conditions: gel experiments, E. coli membranes, 1 h preincubation, Bocillin Fl 20 μM
B. subtilis PBP4a = B. subtilis PBP4a (Bacillus subtilis, UniProt P39844); test: PBP4a inhibition in solution; type: biochemical
[6] = target: Actinomadura R39 DD-peptidase (Actinomadura sp., UniProt P39045); test: R39 DD-peptidase inhibition in solution; type: biochemical
E. coli PBP4 = E. coli PBP4 (Escherichia coli, UniProt P24228); test: Membrane-bound PBP inhibition, Bocillin Fl competition gel; type: binding; conditions: gel experiments, E. coli membranes, 1 h preincubation, Bocillin Fl 20 μM
[7] = target: class A SHV-1 β-lactamase (Klebsiella pneumoniae, UniProt P0AD64); test: SHV-1 β-lactamase inhibition; type: biochemical; conditions: even at 1 mM concentrations
[8] = target: Streptomyces R61 DD-peptidase (Streptomyces sp., UniProt P15555); test: R61 DD-peptidase inhibition in solution; type: biochemical
E. coli PBP1a/1b = test: Membrane-bound PBP inhibition, Bocillin Fl competition gel; type: binding; conditions: gel experiments, E. coli membranes, 1 h preincubation, Bocillin Fl 20 μM
[9] = system: CC(=O)OCC1=C(C(=O)O)N2C(=O)[C@@H](NC(=O)Cc3cccs3)[C@H]2SC1; test: AmpC β-lactamase inhibition, steady-state competition with cephalothin; type: biochemical; conditions: pH 7.5; 25.0 °C

## Methyl penicilloate [compound 28, reference compound]
[1]
  substrate activity: substrate
Class C P99 β-lactamase [2]; P99 β-lactamase, see Supporting Information
  substrate activity: substrate
Class A BCI β-lactamase
  substrate / covalent inhibitor activity: neither a substrate nor a covalent inhibitor
[3]
  substrate / covalent inhibitor activity: neither a substrate nor a covalent inhibitor

## CC(=O)OCC1=C(C(=O)O)N2C(=O)[C@@H](NC(=O)Cc3cccs3)[C@H]2SC1 [cephalothin]
Class C P99 β-lactamase [4]
  Km: 9 µM

## CC1(C)SC(C(NC(=O)Cc2ccccc2)B(O)O)NC1C(=O)O (centres unmarked) [compound 12, 2-[1-(dihydroxyboranyl)(2-phenylacetamido)methyl]-5,5-dimethyl-1,3-thiazolidine-4-carboxylic acid]
TEM-1 β-lactamase
  inhibition of TEM-1 β-lactamase: Neither the TEM-1, SHV-1, nor PCI β-lactamases were inhibited
[5]; PCI β-lactamase, NI = no inhibition at 1.0 mM
  Ki: NI ^b
[5]; even at 1 mM concentrations
  inhibition of PCI β-lactamase: Neither the TEM-1, SHV-1, nor PCI β-lactamases were inhibited
E. coli PBP3
  inhibition of E. coli PBP3: did not inhibit
E. coli PBP5
  inhibition of E. coli PBP5: did not inhibit
AmpC β-lactamase
  Ki: 1300 ± 400 nM
E. coli PBP2
  inhibition of E. coli PBP2: did not inhibit
Class C P99 β-lactamase [2]
  Ki: 950 ± 110 nM
B. subtilis PBP4a
  inhibition of B. subtilis PBP4a: no inhibition
[6]; R39 DD-peptidase, NI = no inhibition at 0.10 mM
  Ki: NI ^c
[6]; in solution
  inhibition of Actinomadura R39 DD-peptidase: no inhibition
E. coli PBP4
  inhibition of E. coli PBP4: did not inhibit
[7]
  inhibition of SHV-1 β-lactamase: Neither the TEM-1, SHV-1, nor PCI β-lactamases were inhibited
[8]
  inhibition of Streptomyces R61 DD-peptidase: no inhibition
E. coli PBP1a/1b
  inhibition of E. coli PBP1a/1b: did not inhibit
[3]; TEM-2 β-lactamase, NI = no inhibition at 1.0 mM
  Ki: NI ^b
[3]; in 24 h
  inhibition of TEM-2 enzyme over time: no inhibition

## AmpC β-lactamase (Escherichia coli K-12)
[9]
  Km: 13.8 µM
